# Measurements as given in the supplement of paper PMC10307832.
# Columns and labels:
# Experiment in all cases: relative viability (nuclei count vs DMSO), 5 days (fraction); higher = more cells survive
# PC-14 = tested on: PC-14
# In short: (§1)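 Values are medians from duplicate plates. Each reflects relative viability, defined as the nuclei count of treated wells over that of vehicle wells. Lung cancer cell lines in 1536-well plates were pin-tool dosed one day after seeding with one drug alone or with a fixed anchor-drug dose plus five library-drug doses (not always all listed) in √10 steps, then fixed, stained and imaged at 4× after 5 days.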
# LOU-NH91 = tested on: LOU-NH91
# In short: as §1
# NCI-H1666 = tested on: NCI-H1666
# In short: as §1
# NCI-H2009 = tested on: NCI-H2009
# In short: as §1
# LK-2 = tested on: LK-2
# In short: as §1
# HCC-366 = tested on: HCC-366
# In short: as §1
# CAL-12T = tested on: CAL-12T
# In short: as §1
# NCI-H3122 = tested on: NCI-H3122
# In short: as §1
# NCI-H727 = tested on: NCI-H727
# In short: as §1
# COR-L 105 = tested on: COR-L 105
# In short: as §1
# EKVX = tested on: EKVX
# In short: as §1
# NCI-H441 = tested on: NCI-H441
# In short: as §1
# NCI-H1437 = tested on: NCI-H1437
# In short: as §1
# NCI-H661 = tested on: NCI-H661
# In short: as §1
# HARA = tested on: HARA
# In short: as §1
# ABC-1 = tested on: ABC-1
# In short: as §1
# NCI-H460 = tested on: NCI-H460
# In short: as §1
# 201T = tested on: 201T
# In short: as §1
# BEN = tested on: BEN
# In short: as §1
smiles,measurement,setting,value
CC(=O)O[C@@]12CO[C@@H]1C[C@H](O)[C@@]1(C)C(=O)[C@H](O)C3=C(C)[C@@H](OC(=O)[C@H](O)[C@@H](NC(=O)OC(C)(C)C)c4ccccc4)C[C@@](O)([C@@H](OC(=O)c4ccccc4)[C@H]21)C3(C)C [Docetaxel] + C[C@]1(O)C[C@@H](c2nc(-c3ccc4ccc(-c5ccccc5)nc4c3)c3c(N)nccn32)C1 [Linsitinib] (partner 1 µM),relative viability,PC-14; first compound 0.0002 µM,0.992
same,relative viability,PC-14; first compound 0.000632 µM,0.957
same,relative viability,PC-14; first compound 0.002 µM,0.606
same,relative viability,PC-14; first compound 0.006325 µM,0.152
same,relative viability,PC-14; first compound 0.02 µM,0.064
same,relative viability,LOU-NH91; first compound 0.0002 µM,0.967
same,relative viability,LOU-NH91; first compound 0.000632 µM,0.8
same,relative viability,LOU-NH91; first compound 0.002 µM,0.586
same,relative viability,LOU-NH91; first compound 0.006325 µM,0.434
same,relative viability,LOU-NH91; first compound 0.02 µM,0.324
same,relative viability,NCI-H1666; first compound 0.0002 µM,0.712
same,relative viability,NCI-H1666; first compound 0.000632 µM,0.404
same,relative viability,NCI-H1666; first compound 0.002 µM,0.383
same,relative viability,NCI-H1666; first compound 0.006325 µM,0.28
same,relative viability,NCI-H1666; first compound 0.02 µM,0.211
same,relative viability,NCI-H2009; first compound 0.0002 µM,1.15
same,relative viability,NCI-H2009; first compound 0.000632 µM,1.18
same,relative viability,NCI-H2009; first compound 0.002 µM,0.77
same,relative viability,NCI-H2009; first compound 0.006325 µM,0.522
same,relative viability,NCI-H2009; first compound 0.02 µM,0.187
same,relative viability,LK-2; first compound 0.0002 µM,0.534
same,relative viability,LK-2; first compound 0.000632 µM,0.445
same,relative viability,LK-2; first compound 0.002 µM,0.154
same,relative viability,LK-2; first compound 0.006325 µM,0.151
same,relative viability,LK-2; first compound 0.02 µM,0.156
same,relative viability,HCC-366; first compound 0.0002 µM,0.423
same,relative viability,HCC-366; first compound 0.000632 µM,0.545
same,relative viability,HCC-366; first compound 0.002 µM,0.0386
same,relative viability,HCC-366; first compound 0.006325 µM,0.012
same,relative viability,HCC-366; first compound 0.02 µM,0.0114
same,relative viability,CAL-12T; first compound 0.0002 µM,0.725
same,relative viability,CAL-12T; first compound 0.000632 µM,0.694
same,relative viability,CAL-12T; first compound 0.002 µM,0.303
same,relative viability,CAL-12T; first compound 0.006325 µM,0.184
same,relative viability,CAL-12T; first compound 0.02 µM,0.14
same,relative viability,NCI-H3122; first compound 0.0002 µM,1
same,relative viability,NCI-H3122; first compound 0.000632 µM,1
same,relative viability,NCI-H3122; first compound 0.002 µM,0.79
same,relative viability,NCI-H3122; first compound 0.006325 µM,0.349
same,relative viability,NCI-H3122; first compound 0.02 µM,0.218
same,relative viability,NCI-H727; first compound 0.0002 µM,0.384
same,relative viability,NCI-H727; first compound 0.000632 µM,0.307
same,relative viability,NCI-H727; first compound 0.002 µM,0.22
same,relative viability,NCI-H727; first compound 0.006325 µM,0.211
same,relative viability,NCI-H727; first compound 0.02 µM,0.21
same,relative viability,COR-L 105; first compound 0.0002 µM,0.899
same,relative viability,COR-L 105; first compound 0.000632 µM,0.757
same,relative viability,COR-L 105; first compound 0.002 µM,0.395
same,relative viability,COR-L 105; first compound 0.006325 µM,0.362
same,relative viability,COR-L 105; first compound 0.02 µM,0.288
same,relative viability,EKVX; first compound 0.0002 µM,0.899
same,relative viability,EKVX; first compound 0.000632 µM,0.804
same,relative viability,EKVX; first compound 0.002 µM,0.427
same,relative viability,EKVX; first compound 0.006325 µM,0.23
same,relative viability,EKVX; first compound 0.02 µM,0.115
same,relative viability,NCI-H441; first compound 0.0002 µM,0.405
same,relative viability,NCI-H441; first compound 0.000632 µM,0.27
same,relative viability,NCI-H441; first compound 0.002 µM,0.172
same,relative viability,NCI-H441; first compound 0.006325 µM,0.224
same,relative viability,NCI-H441; first compound 0.02 µM,0.117
same,relative viability,NCI-H1437; first compound 0.0002 µM,0.964
same,relative viability,NCI-H1437; first compound 0.000632 µM,0.805
same,relative viability,NCI-H1437; first compound 0.006325 µM,0.124
same,relative viability,NCI-H1437; first compound 0.02 µM,0.0906
same,relative viability,NCI-H661; first compound 0.0002 µM,0.593
same,relative viability,NCI-H661; first compound 0.000632 µM,0.683
same,relative viability,NCI-H661; first compound 0.002 µM,0.45
same,relative viability,NCI-H661; first compound 0.006325 µM,0.449
same,relative viability,NCI-H661; first compound 0.02 µM,0.261
same,relative viability,HARA; first compound 0.0002 µM,0.739
same,relative viability,HARA; first compound 0.000632 µM,0.482
same,relative viability,HARA; first compound 0.002 µM,0.235
same,relative viability,HARA; first compound 0.006325 µM,0.0978
same,relative viability,HARA; first compound 0.02 µM,0.0632
same,relative viability,ABC-1; first compound 0.0002 µM,0.834
same,relative viability,ABC-1; first compound 0.000632 µM,1
same,relative viability,ABC-1; first compound 0.002 µM,0.424
same,relative viability,ABC-1; first compound 0.006325 µM,0.286
same,relative viability,ABC-1; first compound 0.02 µM,0.218
same,relative viability,NCI-H460; first compound 0.0002 µM,0.715
same,relative viability,NCI-H460; first compound 0.000632 µM,0.153
same,relative viability,NCI-H460; first compound 0.002 µM,0.0174
same,relative viability,NCI-H460; first compound 0.006325 µM,0.0113
same,relative viability,NCI-H460; first compound 0.02 µM,0.0074
same,relative viability,201T; first compound 0.0002 µM,1.04
same,relative viability,201T; first compound 0.000632 µM,1.07
same,relative viability,201T; first compound 0.002 µM,0.944
same,relative viability,201T; first compound 0.006325 µM,0.48
same,relative viability,201T; first compound 0.02 µM,0.284
same,relative viability,BEN; first compound 0.0002 µM,0.827
same,relative viability,BEN; first compound 0.000632 µM,0.812
same,relative viability,BEN; first compound 0.002 µM,0.473
same,relative viability,BEN; first compound 0.006325 µM,0.246
same,relative viability,BEN; first compound 0.02 µM,0.189
